BigSolDB 2.1

Cc1cnc(N)s1
Conditions	solubility (mole fraction)
in 1,4-dioxane, 278.15 K	0.0399
in 1,4-dioxane, 280.65 K	0.0431
in 1,4-dioxane, 283.15 K	0.0474
in 1,4-dioxane, 285.65 K	0.0517
in 1,4-dioxane, 288.15 K	0.0563
in 1,4-dioxane, 290.65 K	0.0618
in 1,4-dioxane, 293.15 K	0.0673
in 1,4-dioxane, 295.65 K	0.0737
in 1,4-dioxane, 298.15 K	0.0806
in 1,4-dioxane, 300.65 K	0.0881
in 1,4-dioxane, 303.15 K	0.0961
in 1,4-dioxane, 305.65 K	0.105
in 1,4-dioxane, 308.15 K	0.115
in 1,4-dioxane, 310.65 K	0.126
in 1,4-dioxane, 313.15 K	0.138
in 2-butanone, 278.15 K	0.0365
in 2-butanone, 280.65 K	0.0405
in 2-butanone, 283.15 K	0.0448
in 2-butanone, 285.65 K	0.049
in 2-butanone, 288.15 K	0.0535
in 2-butanone, 290.65 K	0.0585
in 2-butanone, 293.15 K	0.064
in 2-butanone, 295.65 K	0.0705
in 2-butanone, 298.15 K	0.0776
in 2-butanone, 300.65 K	0.0849
in 2-butanone, 303.15 K	0.093
in 2-butanone, 305.65 K	0.101
in 2-butanone, 308.15 K	0.111
in 2-butanone, 310.65 K	0.121
in 2-butanone, 313.15 K	0.133
in acetone, 278.15 K	0.0493
in acetone, 280.65 K	0.0535
in acetone, 283.15 K	0.0587
in acetone, 285.65 K	0.0637
in acetone, 288.15 K	0.0692
in acetone, 290.65 K	0.0756
in acetone, 293.15 K	0.0825
in acetone, 295.65 K	0.09
in acetone, 298.15 K	0.0979
in acetone, 300.65 K	0.107
in acetone, 303.15 K	0.116
in acetone, 305.65 K	0.126
in acetone, 308.15 K	0.137
in acetone, 310.65 K	0.15
in acetone, 313.15 K	0.163
in acetonitrile, 278.15 K	0.0284
in acetonitrile, 280.65 K	0.031
in acetonitrile, 283.15 K	0.0341
in acetonitrile, 285.65 K	0.0372
in acetonitrile, 288.15 K	0.0406
in acetonitrile, 290.65 K	0.0446
in acetonitrile, 293.15 K	0.0489
in acetonitrile, 295.65 K	0.0536
in acetonitrile, 298.15 K	0.0586
in acetonitrile, 300.65 K	0.0638
in acetonitrile, 303.15 K	0.0699
in acetonitrile, 305.65 K	0.0763
in acetonitrile, 308.15 K	0.0838
in acetonitrile, 310.65 K	0.0921
in acetonitrile, 313.15 K	0.1
in cyclohexane, 283.15 K	0.000429
in cyclohexane, 285.65 K	0.000491
in cyclohexane, 288.15 K	0.000566
in cyclohexane, 290.65 K	0.000645
in cyclohexane, 293.15 K	0.000736
in cyclohexane, 295.65 K	0.000839
in cyclohexane, 298.15 K	0.000953
in cyclohexane, 300.65 K	0.00108
in cyclohexane, 303.15 K	0.00123
in cyclohexane, 305.65 K	0.00138
in cyclohexane, 308.15 K	0.00156
in cyclohexane, 310.65 K	0.00173
in cyclohexane, 313.15 K	0.00194
in ethanol, 278.15 K	0.0486
in ethanol, 280.65 K	0.0529
in ethanol, 283.15 K	0.0574
in ethanol, 285.65 K	0.0629
in ethanol, 288.15 K	0.0677
in ethanol, 290.65 K	0.0736
in ethanol, 293.15 K	0.0799
in ethanol, 295.65 K	0.0869
in ethanol, 298.15 K	0.095
in ethanol, 300.65 K	0.103
in ethanol, 303.15 K	0.112
in ethanol, 305.65 K	0.122
in ethanol, 308.15 K	0.133
in ethanol, 310.65 K	0.144
in ethanol, 313.15 K	0.157
in ethyl acetate, 278.15 K	0.0523
in ethyl acetate, 280.65 K	0.0567
in ethyl acetate, 283.15 K	0.0614
in ethyl acetate, 285.65 K	0.067
in ethyl acetate, 288.15 K	0.0726
in ethyl acetate, 290.65 K	0.0791
in ethyl acetate, 293.15 K	0.086
in ethyl acetate, 295.65 K	0.0934
in ethyl acetate, 298.15 K	0.101
in ethyl acetate, 300.65 K	0.109
in ethyl acetate, 303.15 K	0.118
in ethyl acetate, 305.65 K	0.129
in ethyl acetate, 308.15 K	0.14
in ethyl acetate, 310.65 K	0.152
in ethyl acetate, 313.15 K	0.164
in isopropanol, 278.15 K	0.0345
in isopropanol, 280.65 K	0.0381
in isopropanol, 283.15 K	0.0415
in isopropanol, 285.65 K	0.0452
in isopropanol, 288.15 K	0.0497
in isopropanol, 290.65 K	0.0546
in isopropanol, 293.15 K	0.0594
in isopropanol, 295.65 K	0.0647
in isopropanol, 298.15 K	0.0709
in isopropanol, 300.65 K	0.0775
in isopropanol, 303.15 K	0.085
in isopropanol, 305.65 K	0.0927
in isopropanol, 308.15 K	0.102
in isopropanol, 310.65 K	0.112
in isopropanol, 313.15 K	0.121
in methanol, 278.15 K	0.0594
in methanol, 280.65 K	0.0639
in methanol, 283.15 K	0.0686
in methanol, 285.65 K	0.0742
in methanol, 288.15 K	0.0796
in methanol, 290.65 K	0.086
in methanol, 293.15 K	0.0927
in methanol, 295.65 K	0.0999
in methanol, 298.15 K	0.107
in methanol, 300.65 K	0.116
in methanol, 303.15 K	0.125
in methanol, 305.65 K	0.135
in methanol, 308.15 K	0.146
in methanol, 310.65 K	0.157
in methanol, 313.15 K	0.169
in n-propanol, 278.15 K	0.037
in n-propanol, 280.65 K	0.0404
in n-propanol, 283.15 K	0.0441
in n-propanol, 285.65 K	0.0482
in n-propanol, 288.15 K	0.0526
in n-propanol, 290.65 K	0.0575
in n-propanol, 293.15 K	0.0628
in n-propanol, 295.65 K	0.0686
in n-propanol, 298.15 K	0.075
in n-propanol, 300.65 K	0.082
in n-propanol, 303.15 K	0.0898
in n-propanol, 305.65 K	0.098
in n-propanol, 308.15 K	0.107
in n-propanol, 310.65 K	0.117
in n-propanol, 313.15 K	0.128
in toluene, 278.15 K	0.0109
in toluene, 280.65 K	0.0121
in toluene, 283.15 K	0.0136
in toluene, 285.65 K	0.0149
in toluene, 288.15 K	0.0167
in toluene, 290.65 K	0.0185
in toluene, 293.15 K	0.0205
in toluene, 295.65 K	0.0225
in toluene, 298.15 K	0.0251
in toluene, 300.65 K	0.028
in toluene, 303.15 K	0.0312
in toluene, 305.65 K	0.0348
in toluene, 308.15 K	0.039
in toluene, 310.65 K	0.0438
in toluene, 313.15 K	0.0493
